Results as given in PubChem BioAssay AID248 (DTP/NCI, 2004).
“And” between values parts separate entries of the source, which are not always exact repeats. Equal values may be shown once. Toxic doses and inconclusive results are not listed. No stated cut-off is given here; in the data, active means T/C of 150% or more; inactive means T/C below 125%.

Test system: L1210 leukemia ip in BDF1 mice, survival T/C
Assay: NCI In Vivo Anticancer Drug Screen. Data for tumor model L1210 Leukemia (intraperitoneal) in B6D2F1 (BDF1) mice
Settings: endpoint: mean survival time, higher = longer survival
Summary of the method: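 Tumor cells were implanted, animals were treated, and survival was followed. The result divides the treated measurement by the vehicle-control measurement.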

[1] = dose: 100.0 mg/kg/injection, schedule: Q01DX009 (ip), vehicle: saline
[2] = dose: 100.0 mg/kg/injection, schedule: Q04DX003 (ip), vehicle: saline with Tween-80
[3] = dose: 200.0 mg/kg/injection, schedule: Q01DX009 (ip), vehicle: saline
[4] = dose: 200.0 mg/kg/injection, schedule: Q04DX003 (ip), vehicle: saline with Tween-80
[5] = dose: 100.0 mg/kg/injection, schedule: Q04DX002 (ip), vehicle: saline with Tween-80
[6] = dose: 200.0 mg/kg/injection, schedule: Q04DX002 (ip), vehicle: saline with Tween-80
[7] = dose: 400.0 mg/kg/injection, schedule: Q04DX002 (ip), vehicle: saline with Tween-80
[8] = dose: 100.0 mg/kg/injection, schedule: Q04DX003 (ip), vehicle: Klucel (hydroxypropylcellulose) (HPC)
[9] = dose: 75.0 mg/kg/injection, schedule: Q01DX001 (ip), vehicle: other
[10] = dose: 150.0 mg/kg/injection, schedule: Q01DX001 (ip), vehicle: other
[11] = dose: 300.0 mg/kg/injection, schedule: Q01DX001 (ip), vehicle: other
[12] = dose: 100.0 mg/kg/injection, schedule: Q01DX001 (ip), vehicle: Klucel (hydroxypropylcellulose) (HPC)
[13] = dose: 100.0 mg/kg/injection, schedule: Q01DX009 (ip), vehicle: Klucel (hydroxypropylcellulose) (HPC)
[14] = dose: 200.0 mg/kg/injection, schedule: Q01DX001 (ip), vehicle: Klucel (hydroxypropylcellulose) (HPC)
[15] = dose: 200.0 mg/kg/injection, schedule: Q01DX009 (ip), vehicle: Klucel (hydroxypropylcellulose) (HPC)
[16] = dose: 400.0 mg/kg/injection, schedule: Q01DX001 (ip), vehicle: Klucel (hydroxypropylcellulose) (HPC)
[17] = dose: 400.0 mg/kg/injection, schedule: Q01DX009 (ip), vehicle: Klucel (hydroxypropylcellulose) (HPC)
[18] = dose: 50.0 mg/kg/injection, schedule: Q04DX002 (ip), vehicle: saline with Tween-80
[19] = dose: 100.0 mg/kg/injection, schedule: Q01DX009 (ip), vehicle: saline with Tween-80
[20] = dose: 200.0 mg/kg/injection, schedule: Q01DX009 (ip), vehicle: saline with Tween-80
[21] = dose: 100.0 mg/kg/injection, schedule: Q01DX001 (ip), vehicle: saline
[22] = dose: 200.0 mg/kg/injection, schedule: Q01DX001 (ip), vehicle: saline
[23] = dose: 400.0 mg/kg/injection, schedule: Q01DX001 (ip), vehicle: saline
[24] = dose: 12.5 mg/kg/injection, schedule: Q04DX002 (ip), vehicle: saline with Tween-80
[25] = dose: 25.0 mg/kg/injection, schedule: Q04DX002 (ip), vehicle: saline with Tween-80
[26] = dose: 200.0 mg/kg/injection, schedule: Q04DX003 (ip), vehicle: Klucel (hydroxypropylcellulose) (HPC)
[27] = dose: 400.0 mg/kg/injection, schedule: Q04DX003 (ip), vehicle: Klucel (hydroxypropylcellulose) (HPC)

Measured: T/C

CCOC(=O)C(=CN1CCCC1)C(=O)OCC
inactive: [1] 104 % of control | [2] 98 % of control | [3] 109 % of control | [4] 98 % of control | dose: 400.0 mg/kg/injection, schedule: Q01DX009 (ip), vehicle: saline 96 % of control | dose: 400.0 mg/kg/injection, schedule: Q04DX003 (ip), vehicle: saline with Tween-80 93 % of control

CCCCS(=O)(=O)N1CCCC1
inactive: [5] 101 % of control | [6] 101 % of control | [7] 101 % of control

CSc1ncc(C(N)=O)c(N=C(C)C)n1
inactive: dose: 12.5 mg/kg/injection, schedule: Q04DX003 (ip), vehicle: Klucel (hydroxypropylcellulose) (HPC) 96 % of control | dose: 25.0 mg/kg/injection, schedule: Q04DX003 (ip), vehicle: Klucel (hydroxypropylcellulose) (HPC) 96 % of control | dose: 50.0 mg/kg/injection, schedule: Q04DX003 (ip), vehicle: Klucel (hydroxypropylcellulose) (HPC) 94 % of control | [8] 97 % of control

O=C1C=CC(=NCC(=O)OCc2ccccc2)O1
inactive: dose: 200.0 mg/kg/injection, schedule: Q04DX003 (ip), vehicle: acetone 91 % of control | dose: 400.0 mg/kg/injection, schedule: Q04DX003 (ip), vehicle: acetone 90 % of control

O=CN(N=O)c1ccccc1
inactive: [9] 104 % of control | [10] 97 % of control | [11] 96 % of control and 104 % of control

COc1cc2cc(C)c(C)cc2cc1OC
inactive: [12] 98 % of control | [13] 103 % of control | [14] 101 % of control | [15] 110 % of control | [16] 98 % of control | [17] 109 % of control

CCOC(CN(Cc1ccccc1)CC(OCC)OCC)OCC
inactive: [18] 100 % of control | [5] 97 % of control and 100 % of control | [6] 92 % of control | [7] 91 % of control

CC(C)c1ccc(/C=C/C(=O)c2ccc(F)cc2)cc1
inactive: [19] 90 % of control | [5] 97 % of control | [20] 90 % of control | [6] 86 % of control | dose: 400.0 mg/kg/injection, schedule: Q01DX009 (ip), vehicle: saline with Tween-80 93 % of control | [7] 97 % of control

CC(=O)Oc1c2ccsc2cc2ccsc12
inactive: dose: 100.0 mg/kg/injection, schedule: Q01DX001 (ip), vehicle: saline with Tween-80 100 % of control | dose: 200.0 mg/kg/injection, schedule: Q01DX001 (ip), vehicle: saline with Tween-80 96 % of control | dose: 400.0 mg/kg/injection, schedule: Q01DX001 (ip), vehicle: saline with Tween-80 96 % of control

CC(=O)CC(=O)N(C)c1ccccc1
inactive: dose: 75.0 mg/kg/injection, schedule: Q01DX001 (ip), vehicle: carboxymethylcellulose (CMC) 104 % of control | dose: 150.0 mg/kg/injection, schedule: Q01DX001 (ip), vehicle: carboxymethylcellulose (CMC) 105 % of control

Cc1cccc(C(C#N)c2ccc(N)cc2)c1 (stereo not given)
inactive: dose: 50.0 mg/kg/injection, schedule: Q01DX001 (ip), vehicle: saline 101 % of control | [21] 101 % of control | [22] 101 % of control

COc1cc2c(cc1OC)C(Cc1ccc(N)cc1)N(C)CC2 (stereo not given)
inactive: dose: 10.0 mg/kg/injection, schedule: Q01DX001 (ip), vehicle: saline 87 % of control | dose: 20.0 mg/kg/injection, schedule: Q01DX001 (ip), vehicle: saline 91 % of control | dose: 40.0 mg/kg/injection, schedule: Q01DX001 (ip), vehicle: saline 94 % of control | dose: 80.0 mg/kg/injection, schedule: Q01DX001 (ip), vehicle: saline 98 % of control

CNC(=O)Nc1ccc(Cl)cc1
inactive: [12] 107 % of control | [14] 105 % of control | [16] 107 % of control

NCCCNC/C=C/CNCCCN
inactive: dose: 75.0 mg/kg/injection, schedule: Q04DX003 (ip), vehicle: saline 105 % of control | dose: 150.0 mg/kg/injection, schedule: Q04DX003 (ip), vehicle: saline 102 % of control | dose: 300.0 mg/kg/injection, schedule: Q04DX003 (ip), vehicle: saline 104 % of control

N/C(N=P(c1ccccc1)(c1ccccc1)c1ccccc1)=N\S(=O)(=O)c1ccc([N+](=O)[O-])cc1
inactive: dose: 25.0 mg/kg/injection, schedule: Q04DX002 (ip), vehicle: Klucel (hydroxypropylcellulose) (HPC) 104 % of control | dose: 50.0 mg/kg/injection, schedule: Q04DX002 (ip), vehicle: Klucel (hydroxypropylcellulose) (HPC) 111 % of control | dose: 100.0 mg/kg/injection, schedule: Q04DX002 (ip), vehicle: Klucel (hydroxypropylcellulose) (HPC) 96 % of control

CNC(=O)Oc1ccc([N+](=O)[O-])cc1
inactive: [9] 101 % of control | [10] 101 % of control | [11] 104 % of control

Cc1ccc(S(=O)(=O)N(Cc2ccc([N+](=O)[O-])cc2)c2ccccc2)cc1
inactive: dose: 100.0 mg/kg/injection, schedule: Q01DX001 (ip), vehicle: carboxymethylcellulose (CMC) 103 % of control | dose: 200.0 mg/kg/injection, schedule: Q01DX001 (ip), vehicle: carboxymethylcellulose (CMC) 105 % of control | dose: 400.0 mg/kg/injection, schedule: Q01DX001 (ip), vehicle: carboxymethylcellulose (CMC) 100 % of control

C#CC(O)(c1ccccc1)c1ccccc1
inactive: [21] 103 % of control | [22] 107 % of control | [23] 100 % of control

NC(=O)N/N=C(\CCl)c1ccccc1
inactive: dose: 12.0 mg/kg/injection, schedule: Q04DX003 (ip), vehicle: saline 93 % of control

CCC(SC(C)=O)C(=O)O (stereo not given)
inactive: dose: 50.0 mg/kg/injection, schedule: Q01DX009 (ip), vehicle: saline 96 % of control | [1] 91 % of control | dose: 100.0 mg/kg/injection, schedule: Q04DX003 (ip), vehicle: saline 89 % of control | [3] 91 % of control | dose: 200.0 mg/kg/injection, schedule: Q04DX003 (ip), vehicle: saline 96 % of control

CCCCCCCCCCOC(=O)CCN1CC1
inactive: [2] 109 % of control | [4] 96 % of control

O=C(O)CSCCSCC(=O)O
inactive: dose: 12.5 mg/kg/injection, schedule: Q04DX002 (ip), vehicle: carboxymethylcellulose (CMC) 95 % of control | dose: 25.0 mg/kg/injection, schedule: Q04DX002 (ip), vehicle: carboxymethylcellulose (CMC) 97 % of control | dose: 50.0 mg/kg/injection, schedule: Q04DX002 (ip), vehicle: carboxymethylcellulose (CMC) 98 % of control | [19] 104 % of control | [20] 94 % of control and 91 % of control

Br[CH2][Sn]([Br])([Br])[CH2]Br
inactive: dose: 6.25 mg/kg/injection, schedule: Q04DX002 (ip), vehicle: saline with Tween-80 101 % of control | [24] 101 % of control | [25] 116 % of control

O=C(O)/C=C\C(=O)Nc1ccc(Cc2ccc(NC(=O)/C=C\C(=O)O)cc2)cc1
inactive: [21] 115 % of control | [8] 95 % of control | [22] 103 % of control | [26] 100 % of control | [23] 103 % of control | [27] 97 % of control

CC1C[N+](C)(C)CC(C)C1=O (stereo not given)
inactive: [24] 96 % of control | [25] 107 % of control | [18] 93 % of control

O=C(Nc1ccccc1F)Nc1cc([N+](=O)[O-])ccc1Cl
inactive: [13] 87 % of control | [15] 94 % of control | [17] 87 % of control

C=C1C2CCC(C2)C1(C)CC/C=C(/C)CO (stereo not given) (tested in a mixture with another compound)
inactive: [8] 96 % of control | [26] 96 % of control | [27] 93 % of control
